The text below walks through data of BindingDB's records for doi:10.1021/acs.jmedchem.5b01840 (Norgine, 2016).

By Ki is commonly meant the dissociation constant of the complex between target and ligand, obtained from inhibition or displacement.

SMILES strings stand for the structures.

A short description of the experiment: Antagonist activity at CCR9 receptor in human MOLT4 cells assessed as inhibition of CCl25-mediated cell migration preincubated for 30 mins followed CCL25 addition incubated for 2 hrs by ChemoTx plate system.
On to `Cc1c(N2C(=O)c3c(Cl)ccc(NS(=O)(=O)c4ccc(C(C)(C)C)cc4)c3C2=O)ccc[n+]1[O-]` [US9969687, Compound 176], for which the inhibition constant Ki was determined as 24 nM.

On to `CC(C)(C)c1ccc(S(=O)(=O)Nc2ccc(Cl)c3c2C(=O)N(c2ccccn2)C3=O)cc1` [US9969687, Compound 222], for which the Ki turned out to be 9 nM.

As for `CC(C)(C)c1ccc(S(=O)(=O)Nc2ccc(Cl)c3c2C(=O)N(Cc2ccc[n+]([O-])c2)C3=O)cc1` [US9969687, Compound 65], the Ki amounted to 38 nM.

For the compound `CC(C)(C)c1ccc(S(=O)(=O)Nc2ccc(Cl)c3c2C(=O)N(Cc2cccnc2)C3=O)cc1` [US9969687, Compound 64], the Ki is 357 nM.

As to `COc1ccncc1N1C(=O)c2c(Cl)ccc(NS(=O)(=O)c3ccc(C(C)(C)C)cc3)c2C1=O` [US9969687, Compound 119], the Ki was 3 nM.

Turning to `CC(C)(C)c1ccc(S(=O)(=O)Nc2ccc(Cl)c3c2C(=O)N(Cc2cccc[n+]2[O-])C3=O)cc1` [US9969687, Compound 199], the Ki stood at 40 nM.

Consider `COc1c(N2C(=O)c3c(Cl)ccc(NS(=O)(=O)c4ccc(C(C)(C)C)cc4)c3C2=O)ccc[n+]1[O-]` [US9969687, Compound 194], for which the inhibitory constant (Ki) came to 113 nM.

On to `Cc1cccc(N2C(=O)c3c(Cl)ccc(NS(=O)(=O)c4ccc(C(C)(C)C)cc4)c3C2=O)n1` [US9969687, Compound 228], for which the Ki stood at 19 nM.

Turning to `CC(C)(C)c1ccc(S(=O)(=O)Nc2ccc(Cl)c3c2C(=O)N(c2cccnc2F)C3=O)cc1` [US9969687, Compound 218], the Ki was determined as 91 nM.

For the compound `COc1ncccc1N1C(=O)c2c(Cl)ccc(NS(=O)(=O)c3ccc(C(C)(C)C)cc3)c2C1=O` [US9969687, Compound 183], the Ki was 32 nM.

On to `Cc1ccc(N2C(=O)c3c(Cl)ccc(NS(=O)(=O)c4ccc(C(C)(C)C)cc4)c3C2=O)c(C)n1` [US9969687, Compound 224], for which the inhibition constant (Ki) was over 300 nM.

For `Cc1ncccc1N1C(=O)c2c(Cl)ccc(NS(=O)(=O)c3ccc(C(C)(C)C)cc3)c2C1=O` [US9969687, Compound 175], the Ki was found to be 14 nM.

Consider `CC(C)(C)c1ccc(S(=O)(=O)Nc2ccc(Cl)c3c2C(=O)N(Cc2ccncc2)C3=O)cc1` [US9969687, Compound 201], for which the Ki is over 100 nM.
